Data from patent US8637461B2, “Method of diagnosing and treating oxidative stress-impaired wound healing” (Kuwait University, priority 2011, dated 2014).

Experiments:
Type in all cases: cell-based, rat
PI3K = PI3K ELISA kinase assay on fibroblast lysates; conditions: diabetic, TNF-α- or dexamethasone-exposed cells; co-exposure to EUK-134
Experimental: (§1) Primary dermal fibroblasts were obtained from dorsal skin of female Goto Kakizaki (GK, age 12-15 months) rats, a model for non-obese type 2 diabetes, and their Wistar control counterparts. After sterilization in povidine solution, rat skin was washed in sterile water and rinsed in 70% ethanol in PBS. Epidermis and dermis were separated following overnight incubation in 0.25% trypsine/EDTA at 4 C. Dermis was cut into small pieces and incubated in Dulbecco's modified Eagle medium (DMEM; Invitrogen) containing collagenase (250 U/ml; Sigma) for thirty min at 37 C in 5% CO2 with constant agitation. The sections were triturated vigorously to release fibroblasts, which were collected by centrifugation. The cell pellet was washed two times with PBS, re-suspended in complete medium (DMEM supplemented with 10% fetal calf serum, penicillin (100 U/ml), streptomycin (100 μg/ml)), 2 mM L-glutamine and 10 mM HEPES) and then cultured under a standard condition.
(§2) A hypercortisolemic state was mimicked by exposing control fibroblasts to dexamethasone (Dexa, Sigma) administered at 20 ng/ml every other day for a duration of 8 days. […] The concentration of IGF-1 (50 ng/ml, Peprotech) was determined by prior dose response experiment.
PI3K activity was measured using PI3K ELISA (Echelon Biosciences Inc). […]

IRS-1 [1] = assay: IRS-1 Ser307 phosphorylation in dermal fibroblasts; conditions: diabetic, TNF-α- or dexamethasone-exposed cells; EUK-134
Experimental: as §1, with “The cell pellet was washed two times with PBS, re-suspended in complete medium (DMEM supplemented with 10% fetal calf serum, penicillin (100 U/ml), streptomycin (100 μg/ml)), 2 mM L-glutamine and 10 mM HEPES) and then cultured under a standard condition.” left out
as §2
(§3) Levels/activities of key intracellular molecules in the IGF-1 signaling cascade including IRS-1, IRS-1 Tyr-p-612, PI3K-p85α, IRS-1 Ser-p (307), PI3K, Akt, p-Akt, INK and p-JNK were assessed using western blotting/immunoprecipitation and commercially available ELISA-based assays. […]

COL1A1 mRNA = assay: Real time PCR of COL1A1 mRNA in fibroblasts; conditions: diabetic, TNF-α- or dexamethasone-exposed cells; EUK-134
Experimental: as §1
as §2, with “days. Similarly, the state of low-grade inflammation in fibroblasts was recapitulated experimentally by exposing these cells to TNF-α (4 ng/ml every day for 4 days).” for “days.”, “experiment. […]” for “experiment.”

Akt = Akt phosphorylation, western blotting in dermal fibroblasts; conditions: diabetic, TNF-α- or dexamethasone-exposed cells; EUK-134; western blot
Experimental: as §1, with “The cell pellet was washed two times with PBS, re-suspended in complete medium (DMEM supplemented with 10% fetal calf serum, penicillin (100 U/ml), streptomycin (100 μg/ml)), 2 mM L-glutamine and 10 mM HEPES) and then cultured under a standard condition.” left out
as §2, §3

dermal fibroblasts [2] = assay: Radiolabelled proline uptake assay (collagen synthesis) in fibroblasts; conditions: diabetic, TNF-α- or dexamethasone-exposed cells; EUK-134
Experimental: as §1, with “The cell pellet was washed two times with PBS, re-suspended in complete medium (DMEM supplemented with 10% fetal calf serum, penicillin (100 U/ml), streptomycin (100 μg/ml)), 2 mM L-glutamine and 10 mM HEPES) and then cultured under a standard condition.” left out
as §2
The proliferation and collagen synthesis of cultured fibroblasts were determined using, respectively the 5-bromo-2-deoxyuridine (BrdU) incorporation into DNA and a radiolabelled proline uptake assay.
A radiolabel proline uptake assay was used in the quantification of the rate of collagen synthesis in cultured fibroblasts derived from various experimental groups. […]

IRS-1 [3] = assay: IRS-1 Tyr612 phosphorylation, immunoprecipitation/western blotting in dermal fibroblasts
Experimental: as §1
as §2, with “days. Similarly, the state of low-grade inflammation in fibroblasts was recapitulated experimentally by exposing these cells to TNF-α (4 ng/ml every day for 4 days).” for “days.”
Levels/activities of key intracellular molecules in the IGF-1 signaling cascade including IRS-1, IRS-1 Tyr-p-612, PI3K-p85α, IRS-1 Ser-p (307), PI3K, Akt, p-Akt, INK and p-JNK were assessed using western blotting/immunoprecipitation and commercially available ELISA-based assays.
Ice-cold radioimmunoprecipitation assay (RIPA) buffer was used for the extraction of proteins from fibroblasts. Immunoprecipitation was achieved by incubating cell homogenates with anti-IRS-1 antibody overnight at 4° C. followed by the addition of protein A/G-Agarose for additional two hours. Immunoprecipitates were separated using spin-collection filters (Cytosignal), washed once with RIPA buffer/3× with PBS and then elutated by the addition of Laemmli buffer. […] Antigen-antibody complexes were visualized by an enhanced chemiluminescence system on BioMax Light Film (Kodack) and then the densitometry was analyzed using Quantity One 1-D image software (BioRad, GS 800). All densitometry data were corrected for equal loading using the house keeping gene β-actin and they were expressed as fold change vs. control.

dermal fibroblasts [4] = assay: Collagen gel contraction assay with fibroblasts; conditions: diabetic, TNF-α- or dexamethasone-exposed cells; EUK-134
Experimental: as §1, §2
The ability of fibroblasts to migrate in response to IGF-I in each of our models of oxidative stress-induced IGF-1 resistance was also evaluated. […]

[5] = test system: reactive oxygen species (ROS); assay: ROS generation in cultured fibroblasts (DCF-DA)
Experimental: as §1
as §2, with “days. Similarly, the state of low-grade inflammation in fibroblasts was recapitulated experimentally by exposing these cells to TNF-α (4 ng/ml every day for 4 days).” for “days.”
ROS generation in cultured fibroblasts was evaluated using dichloroflurescein-diacetate (DCF-DA, Molecular Probes), a probe that is oxidized to the fluorescent product DCF upon exposure to hydrogen peroxide, peroxynitrite, hydroxyl radical and nitric oxide. Its concentration serves as an indicator of the overall degree of intracellular oxidative stress.
Cells seeded in 96-well plates were incubated for thirty minutes at 37 C in serum free media containing 5 μM of DCF-DA. The plates were then washed twice with Krebs Ringer Buffer (KR) and the fluorescence readings were taken every 15 min for 1 hr at Ex=485 and Em=530. Subtracted background values were obtained from wells containing DCF-DA without cells. […]

[6] = fibroblasts with diabetic, inflammatory or hypercortisolemia phenotypes, ROS suppressors

For `COc1cccc(C=NCCN=Cc2cccc(OC)c2[O-])c1[O-].[Cl-].[Mn+3]` [EUK-134], the PI3K enzymatic activity (PI3K) was “partially restored”, the “phosphorylation of IRS-1 at Ser307” value (IRS-1 [1]) was “diminishes Ser307 phosphorylation to levels comparable to the basal level in normal fibroblasts” and the “collagen mRNA synthesis” value (COL1A1 mRNA) was “returns it to approximately control levels”. For the same compound, the “Akt phosphorylation in response to IGF-1” value (Akt) was “partially restored”, the “proline uptake (collagen synthesis)” value (dermal fibroblasts [2]) was “returns it to approximately control levels” and the “inhibition of IGF-1-induced IRS-1 Tyr612 phosphorylation” value (IRS-1 [3]; diabetic fibroblasts or normal fibroblasts exposed to TNF-α or dexamethasone, EUK-134) was “ameliorates the inhibition of IRS-1 phosphorylation”. For the same compound, the “common defect in IGF-1 signaling” value (IRS-1 [3]; [6]) was “correct the common defect in IGF-1 signaling”, the “contractility in collagen gel assay” value (dermal fibroblasts [4]) was “partially restores this contractility to control levels” and the “reactive oxygen species (ROS) levels” value ([5]; diabetic, TNF-α- or dexamethasone-exposed cells, EUK-134) was “approximately restores normal ROS levels”. The “HSOS (oxidative stress)” value [5, 6] was “lessen the HSOS”.
